Results from patent US11077127B2, “Adjuvant containing baicalin, particularly from a Scutellaria baicalensis extract, and animal feed containing such an adjuvant” (DELTAVIT, priority 2014, dated 2021).

Key:
Isabrown laying hens = experiment: Test 3: feed intake and egg laying of laying hens subject to thermal stress; assay type: in vivo, hen
Method: Test 3: Study of the Effect of the Administration of a Feed Comprising the Adjuvant with the Scutellaria baicalensis Extract on a Solid Vehicle on the Feed Intake of Laying Hens Subject to Thermal Stress 72 Isabrown laying hens thirty weeks old at the beginning of the test were divided into three groups of twelve cages each containing two hens. The test was carried out until the hens were 38 weeks old. Group 1 received the control feed. Group 2, also called the OTC group, received the control feed supplemented with an antibiotic, 400 ppm of oxytetracycline. Group 3, also called the SCU group, received the control feed supplemented with an extract from the root of Scutellaria baicalensis providing 6 mg of baicalin/kg of feed. After three weeks of distribution of the experimental feed, the hens were subject to a variation in temperature. The temperature of the environment increased from 22° C. (thermal comfort) to 35° C. for 5 days. Food intake, number of eggs laid and average weight of the eggs were recorded every week and every day during the week of the high temperature as well as during the following week. The test was divided into three phases: pre-heat increase phase, thermal stress phase and post-high temperature stress phase.

piglets = experiment: Test 5: state of health and resistance to disease of piglets subject to a stress; assay type: in vivo, pig; conditions: 100 ppm in the feed
Excerpt: Test 5: Study of the Effect of the Administration of a Feed Comprising the Adjuvant with the Extract of Scutellaria baicalensis on a Solid Vehicle on the Improvement in the State of Health and Resistance to Disease of Piglets Subject to a Stress
The piglets were 42 days old at the beginning of the test. Three groups were formed: a control group, a group receiving the same feed supplemented with 100 ppm of an antibiotic (tylosine) and finally the last group receiving a feed supplemented with 100 ppm of an extract of Scutellaria baicalensis, that is 30 ppm of baicalin per kg of feed. The diseases were noted as were the curative treatments used in each groups.

Structure (SMILES)	egg-laying rate (Isabrown laying hens; 2 weeks including the thermal stress phase and the following week, control 85.2%) [%]	daily feed intake per hen (Isabrown laying hens; thermal stress phase (35° C. for 5 days), OTC 400 ppm in feed, SCU 6 mg baicalin/kg of feed, control 50.9 g) [g]	% Pigs not treated (piglets) [%]	% Pigs treated (piglets) [%]	% treatments (piglets) [%]	Mortality + elimination (%) (piglets)	Number of treatments: Cough (piglets)	Number of treatments: Lame (piglets)	Number of treatments: Lean (piglets)	Number of treatments: Nervous symptoms (piglets)	Number of treatments: Watery diarrhoea (piglets)	Pigs treated per cause: Cough (piglets)	Pigs treated per cause: Lame (piglets)	Pigs treated per cause: Lean (piglets)	Pigs treated per cause: Nervous symptoms (piglets)	Pigs treated per cause: Watery diarrhoea (piglets)	Number of pigs treated (piglets; P (Chi2) <0.05)	Number of treatments (piglets; curative treatments, P (Chi2) <0.05)	Withdrawn from test (piglets; number of pigs)	Number of deaths (piglets; piglets 42 days old at start)
CN(C)[C@@H]1C(O)=C(C(N)=O)C(=O)[C@@]2(O)C(O)=C3C(=O)c4c(O)cccc4[C@@](C)(O)[C@H]3[C@H](O)[C@@H]12 [OTC, oxytetracycline]	88.5	53.5	–	–	–	–	–	–	–	–	–	–	–	–	–	–	–	–	–	–
CC[C@H]1OC(=O)C[C@@H](O)[C@H](C)[C@@H](O[C@@H]2O[C@H](C)[C@@H](O[C@H]3C[C@@](C)(O)[C@@H](O)[C@H](C)O3)[C@H](N(C)C)[C@H]2O)[C@@H](CC=O)C[C@@H](C)C(=O)/C=C/C(C)=C/[C@@H]1CO[C@@H]1O[C@H](C)[C@@H](O)[C@@H](OC)[C@H]1OC [Tylosine, tylosine]	–	–	48	52	56.0	4.0	7	0	2	1	4	7	0	2	1	4	13	14	1	0
